Here are results for one molecule from US11207301B2, “Sphingosine 1 phosphate receptor agonists for neuroprotection” (RECEPTOS LLC, priority 2017, dated 2021).

Common to all, as to format: cell-based
For experiment [1], the system named is ERK phosphorylation in primary human astrocytes. Nature of the experiment: ERK phosphorylation in primary human cortical astrocytes (AlphaLISA SureFire Ultra). The following applies: 10-minute exposure, n=3-5. The method, then:
(§1) For the experiments using mouse and human primary astrocytes, ten-point concentration-response curves (90 nM-4.57 pM or 30 nM-1.52 pM) were generated for AKT and/or ERK phosphorylation in primary human and mouse cortical astrocytic cultures in response to a 10-minute treatment with ozanimod, Compound 3, Compound 1, or FTY720-P. AKT and ERK phosphorylation were quantified using AlphaLISA SureFire Ultra Assay kits and the EnVision Plate Reader. AKT and ERK phosphorylation within treated astrocytes were expressed as the mean change in signal intensity compared to the dimethyl sulfoxide (DMSO) vehicle and the half maximal effective concentration (EC50) was determined using non-linear regression.
Primary human astrocytes were purchased from ScienCell Research Laboratories, Inc. and cultured according to the supplier's protocol. The astrocytes were obtained from the human cerebral cortex, cryopreserved at passage one, and delivered frozen. The frozen vials of cells were gently thawed in a 37° C. water bath. Once the contents of the vial were completely thawed, the cell solution was dispensed into a poly-L-lysine (PLL) coated T75 tissue culture flask with 16 mL of human Astrocyte Media, (ScienCell Research Laboratories, Inc.) and incubated at 37° C. 5% CO2. Once the human astrocytes had reached confluency in the T75 flask, they were detached using trypsin/EDTA 0.25%, pelleted at 300×g, split into two PLL coated T225 tissue culture flasks in 40 mL of astrocyte media, and incubated at 37° C. 5% CO2. Once the astrocytes reached confluency in the T225 flasks, they were detached using trypsin/EDTA 0.25% solution, pelleted at 300×g, plated into poly-D-lysine (PDL) coated 96-well plates at a density of 10,000 cells per well in 200 μL human Astrocyte Media, and incubated at 37° C. 5% CO2. Half of the media was replenished every 3-4 days. After 5-7 days of incubation, the P2 human astrocyte plates were utilized for the pERK and pAKT assays.
Cell lysis and detection of pERK were performed according to the PerkinElmer AlphaLISA SureFire Ultra p-ERK1/2 (Thr202/TYR 204) assay protocol. Astrocytes were lysed in the 96-well plate following a 10 minute incubation with compounds with shaking at RT. The astrocytic lysates (10 μL/well) were transferred into a 384-well OptiPlate. As specified by the assay protocol, an acceptor bead mix and a donor bead mix (5 μL/well for each) were added to the plate under subdued light. Plates were sealed with adhesive plate seals and incubated in the dark for 2 hours at RT. The plates were read on the EnVision Plate Reader to assess the pERK levels.
(§2) The AKT and ERK phosphorylation data, collected by a Perkin Elmer EnVision Microplate Reader, was analyzed by non-linear regression (GraphPad Prism, version 7.03) to determine the EC50 values.
A general note: In Alpha technology, singlet oxygen from a donor bead excites a nearby acceptor bead.

For experiment [2], the system named is ERK phosphorylation in primary rat astrocytes. Put plainly: ERK phosphorylation in primary rat astrocytes (MSD pERK assay). The following applies: 10-minute exposure, mean of n=3. The method, then: (§3) For the experiments using rat primary astrocytes, eight-point concentration-response curves were generated for AKT and ERK phosphorylation in primary rat astrocytes cultures in response to a 10-minute treatment with ozanimod (100 nM-46 pM), Compound 3 (10 nM-5 pM), Compound 1 (10 nM-5 pM), or FTY720-P (10 nM-5 pM). Phosphorylation of AKT and ERK was quantified using Meso Scale Discovery assay kits (MSD Mutli-Spot Phopho-AKT (Ser473) Assay Kit and MSD Multi-Spot MAP Kinase Phosphoprotein Assay Whole Cell Lysate Kit) and imaging platform. AKT and ERK phosphorylation within treated astrocytes were assessed as the mean change in signal intensity compared to DMSO vehicle and the half maximal effective concentration (EC50) was determined using non-linear regression.
(§4) Embryonic day18 (E18) rat cortices were purchased from BrainBits LLC. (Springfield, Ill.) and were cultured according to the supplier's protocol. Briefly, cortices were incubated at 37° C. for 10 minutes in activated papain solution before trituration in hibernation medium containing B27 supplement using a modified siliconized glass Pasteur pipette. The cell suspension was centrifuged at 1100×g for 1 minute at room temperature (RT). The cell pellet was then resuspended in NbAstro medium (BrainBits LLC.) and the live cell density was assessed using a cell counter. Primary cells were plated at a density of 7500 cells/cm2 in T75 tissue culture flasks coated with poly-D-lysine (PDL) in a total volume of 12 mL of NbAstro media, and incubated for 10-14 days at 37° C. 5% CO2. After 10-14 days, primary astrocytes in passage 0 (P0) that had reached confluency in the T75 flasks were detached using TrypLE detachment reagent, pelleted at 300×g, and plated into poly-d-lysine coated T225 flasks in 20 mL of NbAstro media, and incubated for another 7 days at 37° C. 5% CO2. After 7 days, primary P1 astrocytes in confluent T225 flasks were detached using TrypLE detachment reagent, pelleted at 300×g, and plated intopoly-d-lysine coated 96-well plates at 10,000 cells per well in 200 μL of NbAstro media, and incubated for 7 days at 37° C. 5% CO2. After 7 days, P2 primary astrocytes were utilized for pAKT and pERK assays.
The pERK (phosphorylated ERK)/pMAPkinase assay was performed according to the manufacturer's protocol. Briefly, MSD pERK/pMAPkinase plates were blocked for 1-2 hours by adding 150 μL of blocker A prepared in 1× Tris wash buffer. […] Following antibody incubation, plates were washed three times with 150 μL of 1× Tris wash buffer and 1× read buffer (150 μL/well) was added. Finally, the plates were read in the MSD imager platform to assess the pERK levels.
(§5) AKT and ERK phosphorylation data were analyzed by non-linear regression (GraphPad Prism, version 6) to determine the EC50 values.

Experiment [3] has as its system ERK phosphorylation in primary mouse astrocytes. Nature of the experiment: ERK phosphorylation in primary mouse cortical astrocytes (AlphaLISA SureFire Ultra). To be noted: 10-minute exposure. The method, then:
as §1
Timed pregnant (E16) C57BL/6J female mice arrive to the test facility on a weekly basis and were housed and cared for according to appropriate protocols for this model. Primary mouse cortical astrocytes are harvested from P0-P2 pups. The newly born animals were deeply anesthetized on ice, decapitated, and the brains were rapidly removed and stored in ice-cold NbAstro media (BrainBits, LLC). Cells were dissociated from freshly dissected cortices by mechanical disruption in the presence of trypsin and DNase. Cells were put into a PDL coated T75 tissue culture flask containing 16 mL NbAstro Media and incubated at 37° C. 5% CO2. Once the mouse astrocytes had reached confluency in the T75 flask, they were detached using TripLE detachment reagent, pelleted at 300×g, expanded into two T225 PDL coated tissue culture flasks containing 40 mL of NbAstro and incubated at 37° C. 5% CO2. […]
Cell lysis and detection of pERK were performed according to the PerkinElmer AlphaLISA SureFire Ultra p-ERK1/2 (Thr202/TYR 204) assay protocol. […] The plates were read on the EnVision Plate Reader to assess the pERK levels.
as §2

Experiment [4] concerns AKT phosphorylation in primary mouse astrocytes. Put plainly: AKT phosphorylation in primary mouse cortical astrocytes (AlphaLISA SureFire Ultra). The following applies: 10-minute exposure, mean of n=3. The method, then:
as §1
Timed pregnant (E16) C57BL/6J female mice arrive to the test facility on a weekly basis and were housed and cared for according to appropriate protocols for this model. Primary mouse cortical astrocytes are harvested from P0-P2 pups. The newly born animals were deeply anesthetized on ice, decapitated, and the brains were rapidly removed and stored in ice-cold NbAstro media (BrainBits, LLC). Cells were dissociated from freshly dissected cortices by mechanical disruption in the presence of trypsin and DNase. Cells were put into a PDL coated T75 tissue culture flask containing 16 mL NbAstro Media and incubated at 37° C. 5% CO2. Once the mouse astrocytes had reached confluency in the T75 flask, they were detached using TripLE detachment reagent, pelleted at 300×g, expanded into two T225 PDL coated tissue culture flasks containing 40 mL of NbAstro and incubated at 37° C. 5% CO2. Once the astrocytes reached confluency in the T225 flasks they were detached using TrypLE detachment reagent, pelleted at 300×g, plated into PDL coated 96-well plates at a density of 10,000 cells per well in 200 μL NbAstro and incubated at 37° C. 5% CO2. Half of the media was replenished every 3-4 days. After 5-7 days of incubation, the P2 mouse astrocyte plates were utilized for the pERK and pAKT assays.
Cell lysis and detection of pAKT were performed according to the PerkinElmer AlphaLISA SureFire Ultra pAKT1/2/3 ([…]) assay protocol. Astrocytes were lysed in the 96-well plate following a 10 minute incubation with compounds with shaking at room temperature (RT). The astrocytic lysates (10 μL/well) were transferred into a 384-well OptiPlate. As specified by the assay protocol, an acceptor bead mix and a donor bead mix (5 μL/well for each) were added to the plate under subdued light. […] The plates were read on the EnVision Plate Reader to assess the pAKT levels.
as §2

Experiment [5] deals with AKT phosphorylation in primary rat astrocytes. Put plainly: AKT phosphorylation in primary rat astrocytes (MSD pAKT assay). The following applies: 10-minute exposure, mean of n=4. The method, then:
as §3, §4
The pAKT (phosphorylated AKT) assay was performed according to the manufacturer's protocol. Briefly, MSD pAKT plates were blocked for 1-2 hours by adding 150 μL of blocker A prepared in 1× Tris wash buffer. […] Following antibody incubation, plates were washed three times with 150 μL of 1× Tris wash buffer and 1× read buffer (150 μL/well) was added. Finally, plates were read in the MSD imager platform to assess pAKT levels.
as §5

As usually defined, the EC50 is the concentration giving half of the maximal effect. Regarding `CCCCCCCCc1ccc(CC[C@](N)(CO)COP(=O)(O)O)cc1` [FTY720-P, reference compound], the EC50 in experiment [1] came out at 0.73 nM; in experiment [2] it was 0.16 nM; in experiment [3] it was 0.14 nM; in experiment [4] it was 0.09 nM; in experiment [5], 0.17 nM.
